Data taken from US6589993B2, “Treating vancomycin-intermediates and multiresistant staphylococci infection with thiamphenicol or a salt thereof” (Zambon Group S.p.A., priority 2000, dated 2003).
In brackets after ≈: the same amount, converted by molar mass.

How the values were obtained:
[1] = system: S. aureus vancomycin-intermediates (VISA) Met-R strains; assay: MIC determination (NCCLS broth microdilution), VISA Met-R strains; format: cell-based, Staphylococcus aureus
Method: (§1) The MICs of thiamphenicol and of other antibiotics was obtained by using the method proposed by NCCLS (National Committee for Clinical Laboratory Standards, 1999).
(§2) Various antibiotic concentrations were added to bacteria in exponental growth (final inoculum 5×10^5 […]); dilution in Mb (cation-supplemented Mueller-Hinton broth) and distribution on a microplate by using an automatic diluting machine Biomek 1000 (Beckman, USA). MHb charged with 2% NaCl was used to test the methicillin activity.
(§3) The antibiotic concentration which hinders a visible growth after 18-24 hours of incubation at 37° C., was registered as MIC.
(§4) S. aureus ATCC 29213 was used as quality control strain.

[2] = system: S. aureus Met-R multiresistant strains; assay: MIC determination (NCCLS broth microdilution), methicillin-resistant multiresistant S. aureus strains; format: cell-based, Staphylococcus aureus; conditions: for MIC: antibiotype Oxa, Ery
Method: as §1, §2, §3, §4

SMILES: CN[C@H](CC(C)C)C(=O)N[C@H]1C(=O)N[C@@H](CC(N)=O)C(=O)N[C@H]2C(=O)N[C@H]3C(=O)N[C@H](C(=O)N[C@H](C(=O)O)c4cc(O)cc(O)c4-c4cc3ccc4O)[C@H](O)c3ccc(c(Cl)c3)Oc3cc2cc(c3O[C@@H]2O[C@H](CO)[C@@H](O)[C@H](O)[C@H]2O[C@H]2C[C@](C)(N)[C@H](O)[C@H](C)O2)Oc2ccc(cc2Cl)[C@H]1O [Vancomicine, vancomycine]
- MIC ([1]; Staphylococcus aureus, VISA): 8 µg/mL (≈ 5.52 µM)
- MIC ([1]; Strain 52 VISA, antibiotype Oxa, Cip, Clin, Ery): 8 µg/mL (≈ 5.52 µM)
- MIC Range ([1]; VISA (2) Met-R): 8 µg/mL (≈ 5.52 µM)
- MIC Range ([2]; S. aureus (50) Met-R): 0,5-2 mg/l
- % susceptible at breakpoint ([2]; S. aureus (50) Met-R, NCCLS (1999) breakpoints): 100%
- MIC50 ([2]; Staphylococcus aureus): 1 µg/mL (≈ 0.69 µM)
- MIC90 ([2]; Staphylococcus aureus): 1 µg/mL (≈ 0.69 µM)
- MIC ([2]; Staphylococcus aureus, Strain 1, Cip, Clin, Gm): 0.5 µg/mL (≈ 0.345 µM)
- MIC ([2]; Staphylococcus aureus, Strain 2, Clin, Fos): 1 µg/mL (≈ 0.69 µM)
- MIC ([2]; Staphylococcus aureus, Strain 3, Cip, Clin, Gm): 1 µg/mL (≈ 0.69 µM)
- MIC ([2]; Staphylococcus aureus, Strain 4, Cip, Gm): 1 µg/mL (≈ 0.69 µM)
- MIC ([2]; Staphylococcus aureus, Strain 5, Cip, Clin): 1 µg/mL (≈ 0.69 µM)
- MIC ([2]; Staphylococcus aureus, Strain 6, Clin, Gm): 1 µg/mL (≈ 0.69 µM)
- MIC ([2]; Staphylococcus aureus, Strain 7, Cip, Gm): 0.5 µg/mL (≈ 0.345 µM)
- MIC ([2]; Staphylococcus aureus, Strain 8, Cip, Clin): 1 µg/mL (≈ 0.69 µM)
- MIC ([2]; Staphylococcus aureus, Strain 9, Cip, Clin, Gm): 1 µg/mL (≈ 0.69 µM)
- MIC ([2]; Staphylococcus aureus, Strain 10, Cip, Clin, Gm): 1 µg/mL (≈ 0.69 µM)
- MIC ([2]; Staphylococcus aureus, Strain 11, Clin, Rif): 1 µg/mL (≈ 0.69 µM)
- MIC ([2]; Staphylococcus aureus, Strain 12, Cip, Clin): 1 µg/mL (≈ 0.69 µM)
- MIC ([2]; Staphylococcus aureus, Strain 13, Cip, Clin): 1 µg/mL (≈ 0.69 µM)
- MIC ([2]; Staphylococcus aureus, Strain 14, Clin, Cip): 1 µg/mL (≈ 0.69 µM)
- MIC ([2]; Staphylococcus aureus, Strain 15, Cip, Clin, Gm): 0.5 µg/mL (≈ 0.345 µM)
- MIC ([2]; Staphylococcus aureus, Strain 16, Cip, Clin): 1 µg/mL (≈ 0.69 µM)
- MIC ([2]; Staphylococcus aureus, Strain 17, Cip, Clin): 0.5 µg/mL (≈ 0.345 µM)
- MIC ([2]; Staphylococcus aureus, Strain 18, Cip, Clin, Gm): 1 µg/mL (≈ 0.69 µM)
- MIC ([2]; Staphylococcus aureus, Strain 19, Cip, Clin, Gm): 1 µg/mL (≈ 0.69 µM)
- MIC ([2]; Staphylococcus aureus, Strain 20, Cip, Clin, Gm): 1 µg/mL (≈ 0.69 µM)
- MIC ([2]; Staphylococcus aureus, Strain 21, Cip, Clin, Gm): 1 µg/mL (≈ 0.69 µM)
- MIC ([2]; Staphylococcus aureus, Strain 22, Cip, Clin): 0.5 µg/mL (≈ 0.345 µM)
- MIC ([2]; Staphylococcus aureus, Strain 23, Cip, Clin, Gm): 1 µg/mL (≈ 0.69 µM)
- MIC ([2]; Staphylococcus aureus, Strain 24, Cip, Clin, Gm): 1 µg/mL (≈ 0.69 µM)
- MIC ([2]; Staphylococcus aureus, Strain 25, Cip, Clin, Gm): 1 µg/mL (≈ 0.69 µM)
- MIC ([2]; Staphylococcus aureus, Strain 26, Cip, Clin, Fos, Gm): 1 µg/mL (≈ 0.69 µM)
- MIC ([2]; Staphylococcus aureus, Strain 27, Cip, Clin, Fos, Gm): 1 µg/mL (≈ 0.69 µM)
- MIC ([2]; Staphylococcus aureus, Strain 28, Cip, Clin, Gm): 1 µg/mL (≈ 0.69 µM)
- MIC ([2]; Staphylococcus aureus, Strain 29, Clin, Fos): 1 µg/mL (≈ 0.69 µM)
- MIC ([2]; Staphylococcus aureus, Strain 30, Cip, Clin, Gm, SXT, Dox): 0.5 µg/mL (≈ 0.345 µM)
- MIC ([2]; Staphylococcus aureus, Strain 31, Cip, Clin, Fox, Gm): 1 µg/mL (≈ 0.69 µM)
- MIC ([2]; Staphylococcus aureus, Strain 32, Cip, Clin, Gm, SXT, Rif): 1 µg/mL (≈ 0.69 µM)
- MIC ([2]; Staphylococcus aureus, Strain 33, Cip, Clin, Gm): 0.5 µg/mL (≈ 0.345 µM)
- MIC ([2]; Staphylococcus aureus, Strain 34, Cip, Clin, Gm): 0.5 µg/mL (≈ 0.345 µM)
- MIC ([2]; Staphylococcus aureus, Strain 35, Cip, Clin, Gm): 1 µg/mL (≈ 0.69 µM)
- MIC ([2]; Staphylococcus aureus, Strain 36, Cip, Clin, Fos): 0.5 µg/mL (≈ 0.345 µM)
- MIC ([2]; Staphylococcus aureus, Strain 37, Cip, Clin, Fos, Gm): 0.5 µg/mL (≈ 0.345 µM)
- MIC ([2]; Staphylococcus aureus, Strain 38, Cip, Gm): 0.5 µg/mL (≈ 0.345 µM)
- MIC ([2]; Staphylococcus aureus, Strain 39, Cip, Clin, Fos, Gm): 0.5 µg/mL (≈ 0.345 µM)
- MIC ([2]; Staphylococcus aureus, Strain 40, Cip, Clin, Gm): 0.5 µg/mL (≈ 0.345 µM)
- MIC ([2]; Staphylococcus aureus, Strain 41, Cip, Clin): 0.5 µg/mL (≈ 0.345 µM)
- MIC ([2]; Staphylococcus aureus, Strain 42, Cip, Clin, Gm): 0.5 µg/mL (≈ 0.345 µM)
- MIC ([2]; Staphylococcus aureus, Strain 43, Cip, Clin, Gm): 0.5 µg/mL (≈ 0.345 µM)
- MIC ([2]; Staphylococcus aureus, Strain 44, Cip, Clin, Gm, Rif, Dox): 1 µg/mL (≈ 0.69 µM)
- MIC ([2]; Staphylococcus aureus, Strain 45, Cip, Clin, Gm, Rif, Dox, Fos): 1 µg/mL (≈ 0.69 µM)
- MIC ([2]; Staphylococcus aureus, Strain 46, Clin, Fos): 0.5 µg/mL (≈ 0.345 µM)
- MIC ([2]; Staphylococcus aureus, Strain 47, Cip, Clin, Gm): 0.5 µg/mL (≈ 0.345 µM)
- MIC ([2]; Staphylococcus aureus, Strain 48, Cip, Clin): 2 µg/mL (≈ 1.38 µM)
- MIC ([2]; Staphylococcus aureus, Strain 49, Cip, Gm): 1 µg/mL (≈ 0.69 µM)
- MIC ([2]; Staphylococcus aureus, Strain 50, Cip, Clin, Gm, Rif, Dox): 1 µg/mL (≈ 0.69 µM)
